Measurements: patent publication US20030135023A1, “Peptide structures useful for competitive modulation of dipeptidyl peptidase IV catalysis” (priority 2001, published 2003)
Where “and” joins values, the source holds several entries; their conditions need not be identical. Identical values can stand only once. Square brackets hold non-standard residues; d marks the D form. Peptide text beside a SMILES is read from it. Tle = CC(C)(C)[C@H](N)C(=O)O

Assays:
[1] = system: diabetic Zucker rats (fa/fa); experiment: Oral glucose tolerance test (OGTT) in diabetic Zucker rats; type: in vivo; details: 100 mg/kg b.w. p.o.
Description: N=30 male Zucker rats (fa/fa), mean age 11 weeks (5-12 weeks), mean body weight 350 g (150-400 g), were purchased from Charles River (Sulzfeld, Germany). They were kept for >12 weeks until all the fatty Zucker rats had the characteristics of manifest Diabetes mellitus.
After overnight fasting, the fatty Zucker rats were given placebo, positive control and test substance, respectively, via feeding tube orally (15 G, 75 mm; Fine Science Tools, Heidelberg, Germany) at −10 min. An oral glucose tolerance test (OGTT) with 2 g/kg b.w. glucose as a 40% solution (B. Braun Melsungen, Melsungen, Germany) was implemented at ±0 min. The glucose was administered via a second feeding tube. Arterial blood samples from the carotid catheter were collected at −30 min, −15 min, ±0 min and at 5, 10, 15, 20, 30, 40, 60, 90 and 120 min into 20 μl glass capillaries, which were placed in standard tubes filled with 1 ml solution for hemolysis (blood glucose measurement).
Blood glucose: Glucose levels were measured using the glucose oxidase procedure (Super G Glukosemeβgerät; Dr. Müller Gerätebau, Freital, Germany).

plasma DP IV = biological target: T1, plasma DP IV (Rattus norvegicus, UniProt P14740); experiment: Plasma DP IV activity after intravasal and oral administration in Wistar rats; type: in vivo; details: for Plasma DP IV activity / DP IV-AUC / Drop of plasma DP IV activity: iv (intravasal) 100 mg/kg b.w.
T1 construct: The assay mixture consisted of 80 μl reagent and 20 μl plasma; from tissue; host or cells: plasma of Wistar rats
T1 sequence (P14740 37-767 limits assumed): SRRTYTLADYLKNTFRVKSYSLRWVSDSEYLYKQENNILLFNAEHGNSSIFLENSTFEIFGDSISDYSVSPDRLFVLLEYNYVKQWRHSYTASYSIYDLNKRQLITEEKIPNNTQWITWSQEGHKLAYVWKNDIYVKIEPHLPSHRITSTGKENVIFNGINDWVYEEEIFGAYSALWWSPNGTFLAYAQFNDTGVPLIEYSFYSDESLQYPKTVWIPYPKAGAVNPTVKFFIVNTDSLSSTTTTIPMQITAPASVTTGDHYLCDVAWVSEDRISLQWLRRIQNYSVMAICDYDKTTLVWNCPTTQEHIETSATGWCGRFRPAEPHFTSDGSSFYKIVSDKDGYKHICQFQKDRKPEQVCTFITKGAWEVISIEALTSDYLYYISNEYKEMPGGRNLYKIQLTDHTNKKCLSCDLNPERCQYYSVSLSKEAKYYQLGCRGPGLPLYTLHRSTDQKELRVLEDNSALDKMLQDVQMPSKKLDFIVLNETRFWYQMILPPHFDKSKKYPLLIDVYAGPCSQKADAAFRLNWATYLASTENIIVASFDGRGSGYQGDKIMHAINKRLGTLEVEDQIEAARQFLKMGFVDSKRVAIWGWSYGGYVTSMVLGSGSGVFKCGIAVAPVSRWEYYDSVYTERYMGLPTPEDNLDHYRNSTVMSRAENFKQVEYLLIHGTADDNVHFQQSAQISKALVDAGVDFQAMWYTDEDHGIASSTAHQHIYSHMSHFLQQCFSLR
Description: Rats with intact catheter function were given the test substances intravasal (intraarterial) or oral, respectively, in random order (N=3 Wistar rats in each group). As positive control, […]. isoleucine thiazolidine*fumarate were administered intravasal.
After overnight fasting, 100 μl samples of heparinized arterial blood were collected at −30, −5, and 0 min into ice-cooled Eppendorf tubes (see below). The test substances were dissolved freshly in 1.0 ml saline (0.154 mol/l) and were given at 0 min either oral via a feeding tube ([…], 75 mm; Fine Science Tools, Heidelberg, Germany) or intravasal. For the intravasal route, the catheter was immediately flushed with 30 μl saline and an additional 1 ml of saline was given orally via the feeding tube.
Arterial blood samples were taken thereafter at 5, 10 (only in a limited number of experiments), 20, 40, 60 and 120 min from the carotid catheter of the conscious unrestrained rats and were always given into ice cooled Eppendorf tubes (Eppendorf-Netheler-Hinz, Hamburg, Germany) filled with 10 μl 1 M citrate buffer pH 3.0 for prevention of further hydrolysis of tripeptides by plasma DP IV activity. Eppendorf tubes were centrifuged immediately (12000 rpm for 2 min, Hettich Zentrifuge EBA 12, Tuttlingen; Germany): The plasma fractions were store on ice until analysis or were deeply frozen at −20 ° C. until analysis.
Plasma DP IV activity: The assay mixture consisted of 80 μl reagent and 20 μl plasma. Kinetic measurements of the formation of the yellow product 4-nitroaniline were performed at 390 nm for 1 min at 30° C. after 2 min pre-incubation at the same temperature. The activity was expressed as arbitrary units [AU] and DP IV activity [mU/ml].
The absolute values of plasma DP IV activity, the relative change of plasma DP IV activity and the time and extent of maximal inhibition were calculated. Data presentation included the presentation of area under the curve (AUC), which was used for evaluation of extent of inhibition of plasma DP IV activity during the two hours of observation. AUC was calculated using the trapezoidal rule.
To compare relative changes of parameters under the conditions of different initial values of DP IV activity an uniform standardised mean (values) was set up at the beginning of the test (see Figures and Tables).
Statistical evaluations were performed with Microsoft Excel® 97. All variables are presented as mean and standard deviation (SD). Treatment groups were compared by Student's t-test, within-group changes by paired t-test. Two-tailed values of p<0.05 were considered significant.

- DP IV-AUC0-120 min (plasma DP IV; intra-vasal 100 mg/kg b.w.): −617±234 mU·min·ml^−1
- plasma DP IV at 5 min (plasma DP IV; intravasal 100 mg/kg b.w., p<0.05): below 10 mU/ml
- Plasma DP IV activity (plasma DP IV; 2.5 min, Mean): 19.01 mU/ml
- Plasma DP IV activity (plasma DP IV; 2.5 min, Standardized Mean): 15.18 mU/ml
- Plasma DP IV activity (plasma DP IV; 5 min, Mean): 18.86 mU/ml
- Plasma DP IV activity (plasma DP IV; 5 min, Standardized Mean): 15.03 mU/ml
- Plasma DP IV activity (plasma DP IV; 7.5 min, Mean): 21.05 mU/ml
- Plasma DP IV activity (plasma DP IV; 7.5 min, Standardized Mean): 17.22 mU/ml
- Plasma DP IV activity (plasma DP IV; 10 min, Mean): 17.25 mU/ml
- Plasma DP IV activity (plasma DP IV; 10 min, Standardized Mean): 13.42 mU/ml
- Plasma DP IV activity (plasma DP IV; 15 min, Mean): 15.50 mU/ml
- Plasma DP IV activity (plasma DP IV; 15 min, Standardized Mean): 11.67 mU/ml
- Plasma DP IV activity (plasma DP IV; 20 min, Mean): 18.71 mU/ml
- Plasma DP IV activity (plasma DP IV; 20 min, Standardized Mean): 14.88 mU/ml
- Plasma DP IV activity (plasma DP IV; 20 min, individual animals, 100 mg/kg): 15.35 mU/ml (2×) and 25.44 mU/ml
- Plasma DP IV activity (plasma DP IV; 40 min, Mean): 17.98 mU/ml
- Plasma DP IV activity (plasma DP IV; 40 min, Standardized Mean): 14.15 mU/ml
- Plasma DP IV activity (plasma DP IV; 60 min, Mean): 17.25 mU/ml
- Plasma DP IV activity (plasma DP IV; 60 min, Standardized Mean): 13.42 mU/ml
- Plasma DP IV activity (plasma DP IV; 120 min, Mean): 19.44 mU/ml
- Plasma DP IV activity (plasma DP IV; 120 min, Standardized Mean): 15.61 mU/ml
- DP IV-AUC (plasma DP IV; Mean): −673.4 AU · min
- Drop of plasma DP IV activity (plasma DP IV; Mean): 5.19 mU/ml
- Drop of plasma DP IV activity (plasma DP IV; individual animals, 100 mg/kg): 5.70 mU/ml and 6.58 mU/ml and 3.29 mU/ml
SMILES: CC[C@H](C)[C@H](NC(=O)[C@@H]1CCCN1C(=O)[C@@H](N)C(C)(C)C)C(=O)O [t-butyl-Gly-Pro-Ile] (H-[Tle]-Pro-Ile-OH; N-terminus and C-terminus assumed)
- Improvement of glucose tolerance ([1]; AUC test compound vs AUC Control): 14.8%
- AUC test compound (glucose, OGTT) ([1]; OGTT 2 g/kg glucose): 653.2 mmol·min/L
- Plasma DP IV activity (plasma DP IV; 2.5 min, individual animals, 100 mg/kg): 15.35 mU/ml and 27.63 mU/ml and 14.04 mU/ml
- Plasma DP IV activity (plasma DP IV; 5 min, individual animals, 100 mg/kg): 15.35 mU/ml and 25.00 mU/ml and 16.23 mU/ml
- Plasma DP IV activity (plasma DP IV; 7.5 min, individual animals, 100 mg/kg): 17.11 mU/ml and 27.63 mU/ml and 18.42 mU/ml
- Plasma DP IV activity (plasma DP IV; 10 min, individual animals, 100 mg/kg): 17.11 mU/ml and 20.18 mU/ml and 14.47 mU/ml
- Plasma DP IV activity (plasma DP IV; 15 min, individual animals, 100 mg/kg): 14.47 mU/ml and 18.42 mU/ml and 13.60 mU/ml
- Plasma DP IV activity (plasma DP IV; 40 min, individual animals, 100 mg/kg): 14.91 mU/ml and 23.68 mU/ml and 15.35 mU/ml
- Plasma DP IV activity (plasma DP IV; 60 min, individual animals, 100 mg/kg): 15.79 mU/ml and 22.37 mU/ml and 13.60 mU/ml
- Plasma DP IV activity (plasma DP IV; 120 min, individual animals, 100 mg/kg): 17.11 mU/ml and 25.88 mU/ml and 15.35 mU/ml
- DP IV-AUC (plasma DP IV; individual animals, 100 mg/kg): −452.9 AU · min and −1179.3 AU · min and −388.2 AU · min
